# Settings: phenol between MCT oil phase and saline phase; oil and saline 19:1; HPLC
# Text: The partition coefficient P is a value calculated by dividing a concentration of preservative in the oil phase by a concentration of preservative in the water phase.
compound,measurement,value
Oc1ccccc1 [phenol],logP,1.1

# From patent US9161981B2 (LG LIFE SCIENCES, LTD., priority 2010, dated 2015)
